Experimental data as given in article PMC12416277, “Phytochemical alkaloids orchestrate immunometabolism against viral infections” (National Science Review, 2025).
Read-outs that look alike come from different tables or passages of the source.

Legend:
VSV [1] = assay type: cell-based, vesicular stomatitis virus (VSV)
VSV [2] = assay type: cell-based, vesicular stomatitis virus (VSV); remark: listed apart in the source
H1N1 [3] = experiment: Dose-response of infectivity, H1N1 in L929 cells; assay type: cell-based; details: Influenza A virus
VSV [4] = assay type: cell-based, vesicular stomatitis virus (VSV); remark: listed apart in the source
VSV [5] = assay type: cell-based, vesicular stomatitis virus (VSV); remark: listed apart in the source
VSV [6] = assay type: cell-based, vesicular stomatitis virus (VSV); remark: listed apart in the source
EMCV [7] = experiment: microbe, parasite or virus in culture; assay type: cell-based, encephalomyocarditis virus (EMCV); details: Cardiovirus A, A549
H1N1 [8] = experiment: Time-of-drug-addition assay, H1N1 in A549 cells; assay type: cell-based, influenza virus A (H1N1); details: pre-treatment, co-treatment and post-treatment
A549 cells = experiment: Transcriptome analysis (RNA-seq, GO, GSEA) of compound-treated A549 cells; details: WT A549 cells, compared among Tet, Fan, Cep, Bbm
EMCV [9] = experiment: microbe, parasite or virus in culture; assay type: cell-based, encephalomyocarditis virus (EMCV); details: Cardiovirus A, L929
H1N1 [10] = assay type: cell-based, influenza virus A (H1N1)
STING [11] = experiment: DMXAA-stimulated WT or Sting-/- MEF cells, Ifnb1, Ifi44, Ccl5, Cxcl10 mRNA; assay type: cell-based, mouse
HSV-1 [12] = assay type: cell-based, herpes simplex virus 1 (HSV-1)
[13] = cited from earlier work
NPC1 [14] = molecular target: T1, NPC1 (Homo sapiens, UniProt O15118); experiment: Cellular thermal shift assay (CETSA); details: 150 µM, HepG2 and A549 lysates
T1 sequence (O15118 23-1278): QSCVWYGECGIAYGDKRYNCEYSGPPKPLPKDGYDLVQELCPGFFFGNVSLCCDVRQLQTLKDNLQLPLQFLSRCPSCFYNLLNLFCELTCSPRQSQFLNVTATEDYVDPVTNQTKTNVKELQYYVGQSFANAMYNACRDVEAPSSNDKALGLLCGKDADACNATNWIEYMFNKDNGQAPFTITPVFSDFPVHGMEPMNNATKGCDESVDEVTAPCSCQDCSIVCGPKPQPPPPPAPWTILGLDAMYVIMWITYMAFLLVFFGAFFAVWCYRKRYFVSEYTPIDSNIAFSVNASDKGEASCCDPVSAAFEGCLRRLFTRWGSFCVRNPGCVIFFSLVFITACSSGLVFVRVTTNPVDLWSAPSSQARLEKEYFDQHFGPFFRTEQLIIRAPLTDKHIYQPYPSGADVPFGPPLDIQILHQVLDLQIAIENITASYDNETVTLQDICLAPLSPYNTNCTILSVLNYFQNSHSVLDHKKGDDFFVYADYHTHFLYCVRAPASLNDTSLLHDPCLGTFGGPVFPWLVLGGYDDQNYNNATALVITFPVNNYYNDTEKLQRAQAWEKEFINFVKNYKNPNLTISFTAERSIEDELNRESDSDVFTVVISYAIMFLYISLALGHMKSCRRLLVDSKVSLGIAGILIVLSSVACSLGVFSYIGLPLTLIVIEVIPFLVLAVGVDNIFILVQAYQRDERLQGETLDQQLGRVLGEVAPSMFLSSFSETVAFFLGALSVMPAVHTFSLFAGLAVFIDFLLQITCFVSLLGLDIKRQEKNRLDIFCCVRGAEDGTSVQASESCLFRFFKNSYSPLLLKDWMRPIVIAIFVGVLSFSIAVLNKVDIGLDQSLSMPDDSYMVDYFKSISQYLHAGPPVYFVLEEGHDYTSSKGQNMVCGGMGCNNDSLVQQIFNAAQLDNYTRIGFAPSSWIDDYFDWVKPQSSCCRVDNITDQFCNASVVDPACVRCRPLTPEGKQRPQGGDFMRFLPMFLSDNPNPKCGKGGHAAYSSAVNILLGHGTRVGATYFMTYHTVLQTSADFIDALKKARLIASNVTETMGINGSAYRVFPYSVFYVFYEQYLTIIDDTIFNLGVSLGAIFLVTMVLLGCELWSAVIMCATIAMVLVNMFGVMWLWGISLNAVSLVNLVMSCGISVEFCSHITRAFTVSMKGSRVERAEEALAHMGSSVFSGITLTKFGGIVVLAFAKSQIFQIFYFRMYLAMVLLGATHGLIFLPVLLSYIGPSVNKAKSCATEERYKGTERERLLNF

STING [15] = assay type: cell-based
[16] = tested on: TBK1, STAT1 and STAT2 phosphorylation; experiment: Immunoblotting of p-TBK1, p-STAT1, p-STAT2 in THP-1 and MEF cells; assay type: cell-based; details: THP-1, MEF cells
HSV-1 [17] = experiment: microbe, parasite or virus in culture; assay type: cell-based, herpes simplex virus 1 (HSV-1); details: Human alphaherpesvirus 1, L929
NPC1 [18] = molecular target: T1, NPC1; assay type: binding; details: read-out: SPR KD

## COc1ccc2cc1Oc1ccc(cc1)C[C@H]1c3cc(c(OC)cc3CCN1C)Oc1c(OC)c(OC)cc3c1[C@H](C2)N(C)CC3 [Tet, tetrandrine]
VSV [1]
  VSV infection: effectively suppressed
VSV [2]
  antiviral effect against VSV: diminished
H1N1 [3]
  EC50: 0.541 µM
VSV [4]
  VSV attachment: without affecting virus attachment
  VSV infection during entry or post-entry stages: inhibited
  VSV-eGFP entry into lysosomes: blocked
VSV [5]
  VSV replication: suppressed
  antiviral efficacy: remained unchanged
VSV [6]; MβCD pretreatment (cholesterol depleted)
  antiviral effect on VSV entry: abolished
VSV [6]; cholesterol supplementation using MβCD-cholesterol
  antiviral effect on VSV entry: restored inhibition
EMCV [7]
  EC50: 0.231 µM
H1N1 [8]
  H1N1 infection: effectively suppressed
A549 cells
  expression of antiviral immune-related genes: higher expression
EMCV [9]
  EC50: 0.989 µM
H1N1 [10]
  antiviral effect against H1N1: diminished
STING [11]; DMXAA treated Sting-/- MEF cells
  Ifnb1, Ifi44, Ccl5 and Cxcl10 gene expression: abolished
STING [11]; DMXAA treated WT MEF cells
  Ifnb1, Ifi44, Ccl5 and Cxcl10 gene expression: increased
HSV-1 [12]
  antiviral effect against HSV-1: markedly reduced
[13]
  systemic clearance: low
  volume of distribution: high
NPC1 [14]
  NPC1 stability (CETSA): enhanced NPC1 stability against degradation
STING [15]
  time-dependent degradation of STING induced by DMXAA: significantly attenuated
[16]
  phosphorylation of TBK1, STAT1 and STAT2: increased the phosphorylation of TBK1, STAT1 and STAT2 in a time- and dose-dependent manner
HSV-1 [17]
  EC50: 0.132 µM
NPC1 [18]
  Kd: 22.2 µM
